# Measurements published in the NIST ThermoML archive (doi:10.1021/je060124c).
# ± gives the expanded uncertainty stated by the source.
# Conditions: Liquid, Capillary tube (Ostwald / Ubbelohde) method
smiles,measurement,setting,value
O [water],viscosity,"296.56 K, 10000 kPa",0.9188 ± 0.027 mPa·s
same,viscosity,"296.56 K, 30000 kPa",0.9185 ± 0.027 mPa·s
same,viscosity,"337.85 K, 10000 kPa",0.4362 ± 0.013 mPa·s
same,viscosity,"337.85 K, 30000 kPa",0.4437 ± 0.013 mPa·s
same,viscosity,"369.15 K, 10000 kPa",0.296 ± 0.0089 mPa·s
same,viscosity,"369.15 K, 30000 kPa",0.3028 ± 0.0091 mPa·s
same,viscosity,"398.75 K, 10000 kPa",0.2229 ± 0.0067 mPa·s
same,viscosity,"398.75 K, 30000 kPa",0.2295 ± 0.0069 mPa·s
same,viscosity,"436.34 K, 10000 kPa",0.168 ± 0.0051 mPa·s
same,viscosity,"436.34 K, 30000 kPa",0.1743 ± 0.0053 mPa·s
same,viscosity,"482.43 K, 10000 kPa",0.1308 ± 0.004 mPa·s
same,viscosity,"482.43 K, 30000 kPa",0.1341 ± 0.0041 mPa·s
same,viscosity,"521.56 K, 10000 kPa",0.1089 ± 0.0034 mPa·s
same,viscosity,"521.56 K, 30000 kPa",0.1143 ± 0.0036 mPa·s
same,viscosity,"580.74 K, 10000 kPa",0.0838 ± 0.0027 mPa·s
same,viscosity,"580.74 K, 30000 kPa",0.0953 ± 0.003 mPa·s
